Measurements as given in PubChem BioAssay AID1963861 (Molecular Pharmacology Branch, DTP, NCI, 2024).

Tested on: 885724-159-R-J1-PDC KRAS PDC multicell spheroid viability
Assay: Anticancer human tumor 885724-159-R-J1-PDC patient-derived pancreatic adenocarcinoma cell line growth inhibition [KRAS2]
Settings: for IC50: curve of first compound; for viability, T/C: stronger effect = lower value; active means viability on the fitted dose curve at most 10% of control; inactive means the rest
Summary of the method: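 Combination screen of spheroid viability in tumor-cell co-cultures with endothelial (HUVEC) and mesenchymal stem cell stroma. Each agent was tested in half-log dilutions, topping at clinical Cmax or at 10 microM without a known Cmax.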

[1] = second compound 0.1 µM, first compound 0.0316 µM
[2] = second compound 0.1 µM, first compound 0.1 µM
[3] = second compound 0.1 µM, first compound 0.316 µM
[4] = second compound 0.1 µM, first compound 1 µM
[5] = second compound 0.1 µM, first compound 3.16 µM
[6] = second compound 0.1 µM, first compound 10 µM
[7] = second compound 0.316 µM, first compound 0.0316 µM
[8] = second compound 0.316 µM, first compound 0.1 µM
[9] = second compound 0.316 µM, first compound 0.316 µM
[10] = second compound 0.316 µM, first compound 1 µM
[11] = second compound 0.316 µM, first compound 3.16 µM
[12] = second compound 0.316 µM, first compound 10 µM
[13] = second compound 1 µM, first compound 0.0316 µM
[14] = second compound 1 µM, first compound 0.1 µM
[15] = second compound 1 µM, first compound 0.316 µM
[16] = second compound 1 µM, first compound 1 µM
[17] = second compound 1 µM, first compound 3.16 µM
[18] = second compound 1 µM, first compound 10 µM
[19] = second compound 3.16 µM, first compound 0.0316 µM
[20] = second compound 3.16 µM, first compound 0.1 µM
[21] = second compound 3.16 µM, first compound 0.316 µM
[22] = second compound 3.16 µM, first compound 1 µM
[23] = second compound 3.16 µM, first compound 3.16 µM
[24] = second compound 3.16 µM, first compound 10 µM
[25] = second compound 10 µM, first compound 0.0316 µM
[26] = second compound 10 µM, first compound 0.1 µM
[27] = second compound 10 µM, first compound 0.316 µM
[28] = second compound 10 µM, first compound 1 µM
[29] = second compound 10 µM, first compound 3.16 µM
[30] = second compound 10 µM, first compound 10 µM
[31] = second compound 0.0316 µM, first compound 0.0316 µM
[32] = second compound 0.0316 µM, first compound 0.1 µM
[33] = second compound 0.1 µM, first compound 0.000316 µM
[34] = second compound 0.1 µM, first compound 0.001 µM
[35] = second compound 0.1 µM, first compound 0.00316 µM
[36] = second compound 0.1 µM, first compound 0.01 µM
[37] = second compound 0.316 µM, first compound 0.000316 µM
[38] = second compound 0.316 µM, first compound 0.001 µM
[39] = second compound 0.316 µM, first compound 0.00316 µM
[40] = second compound 0.316 µM, first compound 0.01 µM
[41] = second compound 1 µM, first compound 0.000316 µM
[42] = second compound 1 µM, first compound 0.001 µM
[43] = second compound 1 µM, first compound 0.00316 µM
[44] = second compound 1 µM, first compound 0.01 µM
[45] = second compound 3.16 µM, first compound 0.000316 µM
[46] = second compound 3.16 µM, first compound 0.001 µM
[47] = second compound 3.16 µM, first compound 0.00316 µM
[48] = second compound 3.16 µM, first compound 0.01 µM
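Further: spheroids exposed to agents for 7 days before readout.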

O=C(c1cc(Cc2n[nH]c(=O)c3ccccc23)ccc1F)N1CCN(C(=O)C2CC2)CC1 + C=CC(=O)N1CCN(c2nc(=O)n(-c3c(C)ccnc3C(C)C)c3nc(-c4c(O)cccc4F)c(F)cc23)C(C)C1
inactive: viability, T/C [1] 117% | viability, T/C [2] 115% | viability, T/C [3] 111% | viability, T/C [4] 113% | viability, T/C [5] 109% | viability, T/C [6] 94.1% | viability, T/C [7] 124% | viability, T/C [8] 115% | viability, T/C [9] 115% | viability, T/C [10] 113% | viability, T/C [11] 108% | viability, T/C [12] 103% | viability, T/C [13] 121% | viability, T/C [14] 119% | viability, T/C [15] 117% | viability, T/C [16] 118% | viability, T/C [17] 114% | viability, T/C [18] 100% | viability, T/C [19] 114% | viability, T/C [20] 119% | viability, T/C [21] 122% | viability, T/C [22] 117% | viability, T/C [23] 111% | viability, T/C [24] 93.5% | viability, T/C [25] 86% | viability, T/C [26] 84.8% | viability, T/C [27] 85.4% | viability, T/C [28] 79% | viability, T/C [29] 90.9% | viability, T/C [30] 71%
> 10000 nM: IC50 (second compound 0.1 µM) | IC50 (second compound 0.316 µM) | IC50 (second compound 1 µM) | IC50 (second compound 3.16 µM) | IC50 (second compound 10 µM)

CC(C)NCC(C(=O)N1CCN(c2ncnc3c2C(C)CC3O)CC1)c1ccc(Cl)cc1 (stereo not given) + CC1OCC2(CCN(c3cnc(Sc4ccnc(N)c4Cl)c(N)n3)CC2)C1N
8340 nM: IC50 (second compound 0.1 µM)
100 nM: IC50 (second compound 10 µM)
inactive: viability, T/C [1] 77.6% | viability, T/C [2] 72.6% | viability, T/C [3] 64.5% | viability, T/C [4] 65.5% | viability, T/C [5] 63.8% | viability, T/C [6] 45.9% | viability, T/C [7] 72.5% | viability, T/C [8] 60.3% | viability, T/C [9] 58.9% | viability, T/C [10] 61.5% | viability, T/C [11] 59.7% | viability, T/C [12] 42.7% | viability, T/C [13] 67.8% | viability, T/C [14] 62.1% | viability, T/C [15] 55% | viability, T/C [16] 51.4% | viability, T/C [17] 54.4% | viability, T/C [18] 41.7% | viability, T/C [19] 57.1% | viability, T/C [20] 55.6% | viability, T/C [21] 46.2% | viability, T/C [22] 47.5% | viability, T/C [23] 46.5% | viability, T/C [24] 32.2% | viability, T/C [25] 56.4% | viability, T/C [26] 49.6% | viability, T/C [27] 42.4% | viability, T/C [28] 37% | viability, T/C [29] 36.2% | viability, T/C [30] 21.8%
2210 nM: IC50 (second compound 1 µM)
5810 nM: IC50 (second compound 0.316 µM)
524 nM: IC50 (second compound 3.16 µM)

Cn1ncnc1[C@H]1c2n[nH]c(=O)c3cc(F)cc(c23)N[C@@H]1c1ccc(F)cc1 + C=CC(=O)N1CCN(c2nc(OCC3CCCN3C)nc3c2CCN(c2cccc4cccc(C)c24)C3)CC1CC#N
> 100 nM: IC50 (second compound 0.0316 µM) | IC50 (second compound 0.1 µM) | IC50 (second compound 0.316 µM) | IC50 (second compound 1 µM) | IC50 (second compound 3.16 µM)
inactive: viability, T/C (second compound 0.0316 µM, first compound 0.000316 µM) 115% | viability, T/C (second compound 0.0316 µM, first compound 0.001 µM) 117% | viability, T/C (second compound 0.0316 µM, first compound 0.00316 µM) 108% | viability, T/C (second compound 0.0316 µM, first compound 0.01 µM) 103% | viability, T/C [31] 97.8% | viability, T/C [32] 96.1% | viability, T/C [33] 106% | viability, T/C [34] 108% | viability, T/C [35] 98.7% | viability, T/C [36] 108% | viability, T/C [1] 106% | viability, T/C [2] 89.5% | viability, T/C [37] 110% | viability, T/C [38] 111% | viability, T/C [39] 106% | viability, T/C [40] 102% | viability, T/C [7] 112% | viability, T/C [8] 88.6% | viability, T/C [41] 100% | viability, T/C [42] 114% | viability, T/C [43] 108% | viability, T/C [44] 101% | viability, T/C [13] 102% | viability, T/C [14] 99.4% | viability, T/C [45] 69.6% | viability, T/C [46] 61.4% | viability, T/C [47] 63.3% | viability, T/C [48] 67.7% | viability, T/C [19] 59.5% | viability, T/C [20] 59.7%

CC(C)n1nc(-c2ccc3oc(N)nc3c2)c2c(N)ncnc21 + CNCc1ccccc1-c1csc(C(C)Nc2nc(C)nc3cc(OC)c(OC)cc23)c1
inactive: viability, T/C [33] 87% | viability, T/C [34] 81.1% | viability, T/C [35] 73.6% | viability, T/C [36] 65% | viability, T/C [1] 54.6% | viability, T/C [2] 52.4% | viability, T/C [37] 100% | viability, T/C [38] 75.3% | viability, T/C [39] 70.7% | viability, T/C [40] 60.6% | viability, T/C [7] 50.2% | viability, T/C [8] 45.6% | viability, T/C [41] 85.8% | viability, T/C [42] 76.2% | viability, T/C [43] 69.2% | viability, T/C [44] 60.6% | viability, T/C [13] 50.2% | viability, T/C [14] 48.5%
active: viability, T/C [45] 2.37% | viability, T/C [46] 11.2% | viability, T/C [47] 2.11% | viability, T/C [48] 1.36% | viability, T/C [19] 3.15% | viability, T/C [20] 1.32% | viability, T/C (second compound 10 µM, first compound 0.000316 µM) 0.19% | viability, T/C (second compound 10 µM, first compound 0.001 µM) 0.31% | viability, T/C (second compound 10 µM, first compound 0.00316 µM) 0.18% | viability, T/C (second compound 10 µM, first compound 0.01 µM) 0.18% | viability, T/C [25] 0.23% | viability, T/C [26] 0.34%
42 nM: IC50 (second compound 0.316 µM)
< 0.316 nM: IC50 (second compound 3.16 µM) | IC50 (second compound 10 µM)
58.3 nM: IC50 (second compound 1 µM)
> 100 nM: IC50 (second compound 0.1 µM)

COc1cc(Nc2ncc3c(n2)-c2ccc(Cl)cc2C(c2c(F)cccc2OC)=NC3)ccc1C(=O)O + C=CC(=O)N1CCN(c2nc(=O)n(-c3c(C)ccnc3C(C)C)c3nc(-c4c(O)cccc4F)c(F)cc23)C(C)C1
inactive: viability, T/C [1] 99.7% | viability, T/C [2] 100% | viability, T/C [3] 95.9% | viability, T/C [4] 92.7% | viability, T/C [5] 100% | viability, T/C [6] 107% | viability, T/C [7] 94.5% | viability, T/C [8] 92.1% | viability, T/C [9] 92.2% | viability, T/C [10] 96.8% | viability, T/C [11] 98.7% | viability, T/C [12] 106% | viability, T/C [13] 97.8% | viability, T/C [14] 93.5% | viability, T/C [15] 92.2% | viability, T/C [16] 93.9% | viability, T/C [17] 85.6% | viability, T/C [18] 99.7% | viability, T/C [19] 80.9% | viability, T/C [20] 85.5% | viability, T/C [21] 86.1% | viability, T/C [22] 90.6% | viability, T/C [23] 90.9% | viability, T/C [24] 87.4% | viability, T/C [25] 65.4% | viability, T/C [26] 67.4% | viability, T/C [27] 63.6% | viability, T/C [28] 58.2% | viability, T/C [29] 56.5% | viability, T/C [30] 49.8%
> 10000 nM: IC50 (second compound 0.1 µM) | IC50 (second compound 0.316 µM) | IC50 (second compound 1 µM) | IC50 (second compound 3.16 µM) | IC50 (second compound 10 µM)

COC(=O)c1ccc2c(C(=Nc3ccc(N(C)C(=O)CN4CCN(C)CC4)cc3)c3ccccc3)c(O)[nH]c2c1 + C=CC(=O)N1CCN(c2nc(OCC3CCCN3C)nc3c2CCN(c2cccc4cccc(C)c24)C3)CC1CC#N
inactive: viability, T/C [31] 100% | viability, T/C [32] 104% | viability, T/C (second compound 0.0316 µM, first compound 0.316 µM) 101% | viability, T/C (second compound 0.0316 µM, first compound 1 µM) 94.5% | viability, T/C (second compound 0.0316 µM, first compound 3.16 µM) 24.4% | viability, T/C [1] 100% | viability, T/C [2] 97% | viability, T/C [3] 98.5% | viability, T/C [4] 85.1% | viability, T/C [5] 19.9% | viability, T/C [7] 100% | viability, T/C [8] 100% | viability, T/C [9] 91.5% | viability, T/C [10] 83.8% | viability, T/C [11] 11.3% | viability, T/C [13] 90.4% | viability, T/C [14] 91.4% | viability, T/C [15] 85.9% | viability, T/C [16] 84.5% | viability, T/C [19] 58.4% | viability, T/C [20] 51.1% | viability, T/C [21] 54.1% | viability, T/C [22] 38%
2080 nM: IC50 (second compound 0.0316 µM)
1710 nM: IC50 (second compound 0.316 µM)
1680 nM: IC50 (second compound 1 µM)
1860 nM: IC50 (second compound 0.1 µM)
active: viability, T/C (second compound 0.0316 µM, first compound 10 µM) 0.81% | viability, T/C [6] 0.65% | viability, T/C [12] 0.77% | viability, T/C [17] 7.97% | viability, T/C [18] 0.43% | viability, T/C [23] 1.11% | viability, T/C [24] 0.32%
431 nM: IC50 (second compound 3.16 µM)
